Assay results published in US20070112076A1, “Methods and materials for treating retinopathy” (SOUTHERN ILLINOIS UNIVERSITY, priority 2005, published 2007).

Experiments:
[1] = test system: iNOS protein expression in human retinal endothelial cells; experiment: Western blot of iNOS protein expression after agonist treatment of retinal endothelial cells; type: cell-based
Description: (§1) Denaturing sample buffer (1 ml 2×GDW, 640 μl 1 M Tris-HCl, pH 6.8, 420 μl 30% glycerol, 250 μl β-mercaptoethanol, 200 μL 0.05% bromophenol blue, and 0.125 g recrystallized SDS) was added to 50 μg of protein, as determined by Bradford assay. Protein samples with sample buffer were centrifuged for 5 min to thoroughly mix the samples, followed by heat denaturation for 5 min at 100° C. Protein samples were then separated on 4-12% pre-cast tris-glycine gels (Invitrogen, Carlsbad, Calif.). Electrophoresis and immunoblotting were done as previously described (Steinle et al., J. Biol. Chem. 278 (2003) (23), pp. 20681-20686) using antibodies to iNOS (diluted 1:500, Chemicon, Temecula, Calif.) and PGE2-EP2 receptor subtype (diluted 1:500, Chemicon). Mean densitometry of immunoreactive bands was assessed using Kodak software, and results are expressed in densitometric units. A paired T-test was performed between the sympathectomized and contralateral retina with significance accepted at P<0.05.
(§2) Initial studies focused on human retinal endothelial cells, which express β-adrenergic receptors. Human microvascular retinal endothelial cells were isolated by Applied Cell Biology Research Institute and sold by Cell Systems (Kirkland, Wash.). Cells were used at passage 3-5 for all experiments. Cells were identified as endothelial cells on the basis of their cobblestone morphology. Cells were grown in attachment factor-coated Corning® dishes and in either high or low glucose media. Both high and low glucose media were identical (purchased from Cell Systems and supplemented with 20% fetal bovine serum, 100 IU/ml penicillin, 100 μg/ml streptomycin, and 0.25 μg/ml amphotericin B) except for the glucose concentration: 25 mM glucose (high glc) or 5 mM glucose (low glc). Cells were adjusted to the appropriate glucose environment for 5 days before the experiments were conducted in starvation medium. Starvation medium had the appropriate concentration of glucose and contains all of the above ingredients except that 0.2% bovine serum albumin is substituted for 20% serum.
For experiments, cells were starved for 18-24 h using starvation medium to insure that the results obtained are due to agonist stimulation, not residual effects from the serum. Following starvation, 10 μM isoproterenol (non-specific β-adrenergic receptor agonist), 10 μM xamoterol (β1-adrenergic receptor subtype agonist), or 10 μM BRL37344 (β3-adrenergic receptor subtype agonist) was placed onto dishes and allowed to act on the cells for 1, 2, or 6 h. Three dishes received no treatment and serve as not-treated controls. […] The effects of xamoterol and BRL37344 were evaluated under high glucose conditions only. […]

[2] = test system: PKA activity in the retina; experiment: PKA ELISA on retinal lysates after eye drops; type: in vivo, rat; conditions: 4 drops of 100 μM eye drops
Description: Three groups of animals were used for these experiments. The first group was made diabetic by a single injection of 60 mg/kg streptozotocin and allowed to remain diabetic for 2.5 month and received 4 drops of 100 μM isoproterenol placed into both eyes (STZ). The other two groups were control groups, with one group being non-diabetic but receiving the 100 μM isoproterenol eye drops (Normal), and the other group not receiving any treatment (NT). At 4, 8 and 12 hours after treatment with isoproterenol, retina from the rats was assayed for PKA by ELISA and CREB by Western blot analysis. The retina of rats from each group was assayed for PKA by ELISA. Three rats were evaluated at each time point (4 hours, 8 hours and 12 hours). The PKA ELISA was carried out using the […] Protein Kinase Assay System from Upstate (Lake Placid, N.Y.). To begin the experiments, 0.1M ATP was made and set to a pH of 7.0. cAMP at a concentration of 20 μM was made with reagents purchased from Sigma Aldrich. To obtain the samples to be assayed, animals were sacrificed and the retina was removed and placed in reaction buffer supplied in the kit. One hundred microliters of each sample in reaction buffer was placed into coated wells of a 96-well plate in duplicate. […] Following application of 100 μL of stop solution to end the reaction with the substrate, the plate was read at 490 nm on a BioTek Plate Reader.

[3] = test system: CREB protein expression in the retina; experiment: Western blot of CREB protein expression in retina after eye drops; type: in vivo, rat; conditions: 100 μM eye drops, diabetic animals, 8 hours, compared to the normal group
Description: Three groups of animals were used for these experiments. The first group was made diabetic by a single injection of 60 mg/kg streptozotocin and allowed to remain diabetic for 2.5 month and received 4 drops of 100 μM isoproterenol placed into both eyes (STZ). The other two groups were control groups, with one group being non-diabetic but receiving the 100 μM isoproterenol eye drops (Normal), and the other group not receiving any treatment (NT). At 4, 8 and 12 hours after treatment with isoproterenol, retina from the rats was assayed for PKA by ELISA and CREB by Western blot analysis.
Western blot analysis was also done to determine protein expression of CREB. Two rats were evaluated at each time point (4 hours, 8 hours and 12 hours). Animals were sacrificed and the eyes were removed. The retina was extracted and placed into lysis buffer (50 mM Tris-HCL, pH 7.4; 1% NP-40, 0.25% Na-deoxycholate; 150 mM NaCl; 1 mM EDTA; 1 mM PMSF; 1 μg/ml each of aprotinin, leupeptin, pepstatin; 1 mM Na3VO4; 1 mM NaF; 0.1% SDS). Protein lysates were homogenized and centrifuged to generate a pellet and supernatant. […] Immunoreactive bands were detected by enhanced SuperSignal (Pierce, Rockford, Ill.) and analyzed using the Kodak 2000R image station. Mean densitometry was assessed using Kodak software, and results are expressed as a percentage of the not treated eyes. […]

[4] = test system: PGE2-EP2 receptor subtype expression in human retinal endothelial cells; experiment: Western blot of PGE2-EP2 receptor subtype expression in retinal endothelial cells; type: cell-based; conditions: low or high glucose media, 10 μM, 1, 2 or 6 h
Description: as §1
Initial studies focused on human retinal endothelial cells, which express β-adrenergic receptors. […]
For experiments, cells were starved for 18-24 h using starvation medium to insure that the results obtained are due to agonist stimulation, not residual effects from the serum. […] The effects of xamoterol and BRL37344 were evaluated under high glucose conditions only. […]

[5] = test system: PGE2 levels in human retinal endothelial cells; experiment: PGE2 ELISA in retinal endothelial cells after agonist treatment; type: cell-based; conditions: low or high glucose media, 10 μM, 1, 2 or 6 h
Source text: as §2, with “An ELISA assay to measure PGE2 content in cell culture supernatants and retinal samples was purchased from Endogen (Pierce Biotechnology, Rockford, Ill.) and used according to the manufacturer's instructions. Initial” for “Initial”, “serum. […] The effects of xamoterol and BRL37344 were evaluated under high glucose conditions only.” for “serum.”

retina = conditions: osmotic pump in the rat; cited from earlier work
[6] = high glucose medium, 10 μM, 1, 2 or 6 h, vs. NT

C[C@H](Cc1ccc(OCC(=O)O)cc1)NC[C@H](O)c1cccc(Cl)c1 [BRL37344]
iNOS protein expression [1, 6]: no effect

CC(C)NCC(O)c1ccc(O)c(O)c1 (centres unmarked) [isoproterenol]
PKA activity in retina ([2]; 12 hours after treatment): significantly increased at 12 hours after treatment relative to the normal, but not when compared to the not treated group | PKA activity in retina ([2]; STZ diabetic rats, 8-hour time point, P<0.05 vs. not-treated and vs. normal): significantly increased | CREB protein expression in retina [3]: substantial increase | PGE2-EP2 receptor subtype expression [4]: did not affect | PGE2 protein levels [5]: did not affect | iNOS protein expression ([1]; high glucose (25 mM) medium, 10 μM, 6 h, P<0.05 vs. not treated): significantly reduced | iNOS protein expression ([1]; low glucose (5 mM) medium, 10 μM, 6 h, P<0.05 vs. not treated): upregulation

Cc1ccc(N(CC2=NCCN2)c2cccc(O)c2)cc1 [phentolamine]
retinal changes as observed after sympathectomy (retina): no effect

CC(C)NCC(O)COc1cccc2ccccc12 (centres unmarked) [propranolol]
retinal changes as observed after sympathectomy (retina): can be mimicked

O=C(NCCNCC(O)COc1ccc(O)cc1)N1CCOCC1 (centres unmarked) [xamoterol]
iNOS protein expression [1, 6]: decreased iNOS protein expression
